This passage reports IC50 results from patent US12448394B2, “Heterocyclic pyrazole derivatives as type III receptor tyrosine kinase inhibitors” (DEVELOPMENT CENTER FOR BIOTECHNOLOGY, priority 2019, dated 2025).

Broadly, the IC50 is the concentration that inhibits the measured activity by half.

The assay addresses T1, FLT3 kinase (Homo sapiens, UniProt P36888).
T1 construct: purchased SignalChem
T1 sequence (P36888 27-993): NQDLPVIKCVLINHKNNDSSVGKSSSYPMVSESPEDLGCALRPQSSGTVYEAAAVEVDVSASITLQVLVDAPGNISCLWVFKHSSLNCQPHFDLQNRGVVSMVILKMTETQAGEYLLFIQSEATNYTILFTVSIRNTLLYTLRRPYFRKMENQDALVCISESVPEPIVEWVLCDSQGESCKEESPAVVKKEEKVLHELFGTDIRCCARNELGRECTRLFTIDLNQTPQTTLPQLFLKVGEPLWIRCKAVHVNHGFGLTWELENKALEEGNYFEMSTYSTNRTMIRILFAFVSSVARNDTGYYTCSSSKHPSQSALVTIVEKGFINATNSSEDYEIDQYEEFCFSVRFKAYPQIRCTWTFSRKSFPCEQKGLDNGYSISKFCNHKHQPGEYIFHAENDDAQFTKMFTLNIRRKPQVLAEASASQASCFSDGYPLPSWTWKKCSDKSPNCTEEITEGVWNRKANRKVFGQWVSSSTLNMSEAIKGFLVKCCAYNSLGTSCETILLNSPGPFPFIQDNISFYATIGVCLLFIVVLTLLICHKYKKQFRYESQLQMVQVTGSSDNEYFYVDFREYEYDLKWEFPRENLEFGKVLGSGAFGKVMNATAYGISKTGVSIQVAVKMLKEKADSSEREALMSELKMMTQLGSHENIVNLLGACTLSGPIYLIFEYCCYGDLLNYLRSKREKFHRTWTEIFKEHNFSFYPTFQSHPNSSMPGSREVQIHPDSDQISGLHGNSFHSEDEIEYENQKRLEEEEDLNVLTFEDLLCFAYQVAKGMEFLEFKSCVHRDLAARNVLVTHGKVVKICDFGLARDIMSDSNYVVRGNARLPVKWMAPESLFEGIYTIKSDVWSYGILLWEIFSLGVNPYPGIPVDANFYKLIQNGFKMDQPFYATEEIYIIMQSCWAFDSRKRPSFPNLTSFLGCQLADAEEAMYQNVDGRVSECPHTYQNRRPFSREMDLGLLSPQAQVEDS
The assay is described as follows: FLT3 kinase assay (AlphaScreen). It is filed as biochemical. To be noted: read-out: Ranking of IC50 values, FLT3. In outline:
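Recombinant FLT3 (1.5 ng) phosphorylated biotinylated poly(Glu4:Tyr1) with 10 μM ATP in MOPS pH 7.0 buffer containing 10 mM MgCl2, 30 min at 30 °C, stopped with EDTA. Product detected by AlphaScreen; IC50 from duplicate serial dilutions.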
(Alpha assays give light when donor and acceptor beads are brought close together.)

Some results are limits rather than exact numbers.

On to `COc1ccc(-c2cc3c(s2)Cc2c(-c4ccc5cnn(C)c5c4)n[nH]c2-3)cn1` [Compound 4, 6-(6-methoxypyridin-3-yl)-3-(1-methyl-1H-indazol-6-yl)-1,4-dihydrothieno [2′,3′:4,5]cyclopenta[1,2-c] pyrazole], for which the IC50 is 1 to 10 nM.

In the case of `Cc1n[nH]c2cc(-c3n[nH]c4c3Cc3sc(-c5ccc(CN6CCOCC6)cc5)cc3-4)ccc12` [Compound 81, 4-(4-(3-(3-methyl-1H-indazol-6-yl)-1,4-dihydro-thieno[2′,3′:4,5]cyclopenta [1,2-c]pyrazol-6-yl)benzyl)morpholine], the IC50 fell in the range of 1 to 10 nM.

In the case of `Cn1ncc2ccc(-c3n[nH]c4c3Cc3sc(-c5ccc(N6CCOCC6)nc5)cc3-4)cc21` [Compound 82, 4-(5-(3-(1-methyl-1H-indazol-6-yl)-1,4-dihydro-thieno[2′,3′:4,5]cyclopenta [1,2-c]pyrazol-6-yl)pyridin-2-yl)morpholine], the IC50 lay within 1 to 10 nM.

Take `CN1CCN(Cc2ccc(-c3cc4c(s3)Cc3c(-c5ccc6cn[nH]c6c5)n[nH]c3-4)cc2)CC1` [Compound 83, 3-(1H-indazol-6-yl)-6-(4-((4-methylpiperazin-1-yl)methyl)phenyl)-1,4-dihydrothieno[2′,3′:4,5] cyclopenta[1,2-c]pyrazole]: the half-maximal inhibitory concentration (IC50) is below 1 nM.

For the molecule `CN1CCN(Cc2ccc(-c3cc4c(s3)Cc3c(-c5ccc6cnn(C)c6c5)n[nH]c3-4)cc2)CC1` [Compound 84, 3-(1-methyl-1H-indazol-6-yl)-6-(4-((4-methylpiperazin-1-yl)methyl)phenyl)-1,4-dihydrothieno [2′,3′:4,5]cyclopenta [1,2-c]pyrazole], the IC50 is below 1 nM.

Turning to `CN1CCN(c2ccc(-c3cc4c(s3)Cc3c(-c5ccc6cnn(C)c6c5)n[nH]c3-4)cn2)CC1` [Compound 85, 3-(1-methyl-1H-indazol-6-yl)-6-(6-(4-methyl-piperazin-1-yl)pyridin-3-yl)-1,4-dihydrothieno [2′,3′:4,5]cyclopenta [1,2-c]pyrazole], the half-inhibitory concentration (IC50) was below 1 nM.

Turning to `Cn1ncc2ccc(-c3n[nH]c4c3Cc3sc(-c5ccnc(Cl)c5)cc3-4)cc21` [Compound 86, 6-(2-chloropyridin-4-yl)-3-(1-methyl-1H-indazol-6-yl)-1,4-dihydrothieno [2′,3′:4,5]cyclopenta [1,2-c]pyrazole], the IC50 fell in the range of 1 to 10 nM.

For the molecule `CN1CCN(c2cc(-c3cc4c(s3)Cc3c(-c5ccc6cnn(C)c6c5)n[nH]c3-4)ccn2)CC1` [Compound 87, 3-(1-methyl-1H-indazol-6-yl)-6-(2-(4-methyl-piperazin-1-yl)pyridin-4-yl)-1,4-dihydrothieno [2′,3′:4,5]cyclopenta [1,2-c]pyrazole], the IC50 is below 1 nM.

With `Cn1ncc2ccc(-c3n[nH]c4c3Cc3sc(-c5ccc(CN6CCOCC6)c(F)c5F)cc3-4)cc21` [Compound 88, 4-(2,3-difluoro-4-(3-(1-methyl-1H-indazol-6-yl)-1,4-dihydrothieno [2′,3′:4,5]cyclopenta [1,2-c]pyrazol-6-yl)benzyl)morpholine], the IC50 was in the range of 1 to 10 nM.

`Cn1nnc2ccc(-c3n[nH]c4c3Cc3sc(-c5ccc(CN6CCOCC6)cc5)cc3-4)cc21` [Compound 89, 4-(4-(3-(1-methyl-1H-benzo[d][1,2,3]triazol-6-yl)-1,4-dihydrothieno [2′,3′:4,5]cyclopenta [1,2-c]pyrazol-6-yl)benzyl)morpholine]: the IC50 lay in the range of 1 to 10 nM.

In the case of `Cn1ncc2ccc(-c3n[nH]c4c3Cc3sc(-c5ccc(CN6CCOCC6)cc5OC(F)(F)F)cc3-4)cc21` [Compound 90, 4-(4-(3-(1-methyl-1H-indazol-6-yl)-1,4-dihydro-thieno[2′,3′:4,5]cyclopenta [1,2-c]pyrazol-6-yl)-3-(trifluoromethoxy)benzyl) morpholine], the half-inhibitory concentration (IC50) is 1 to 10 nM.

For `Cc1cc(CN2CCOCC2)ccc1-c1cc2c(s1)Cc1c(-c3ccc4cnn(C)c4c3)n[nH]c1-2` [Compound 91, 4-(3-methyl-4-(3-(1-methyl-1H-indazol-6-yl)-1,4-dihydrothieno [2′,3′:4,5]cyclopenta [1,2-c]pyrazol-6-yl)benzyl)morpholine], the half-inhibitory concentration (IC50) is 1 to 10 nM.

Regarding `Cn1ncc2ccc(-c3n[nH]c4c3Cc3sc(-c5ccc(N)nc5)cc3-4)cc21` [Compound 92, 5-(3-(1-methyl-1H-indazol-6-yl)-1,4-dihydro-thieno[2′,3′:4,5]cyclopenta [1,2-c]pyrazol-6-yl) pyridin-2-amine], the IC50 is below 1 nM.

On to `CN(C)Cc1ccc(-c2cc3c(s2)Cc2c(-c4ccc5cnn(C)c5c4)n[nH]c2-3)cn1` [Compound 93, N,N-dimethyl-1-(5-(3-(1-methyl-1H-indazol-6-yl)-1,4-dihydrothieno [2′,3′:4,5]cyclopenta [1,2-c]pyrazol-6-yl)pyridin-2-yl)methanamine], for which the half-inhibitory concentration (IC50) was 1 to 10 nM.

On to `CN(C)Cc1ccc(-c2cc3c(s2)Cc2c(-c4ccc5cnn(C)c5c4)n[nH]c2-3)cc1` [Compound 94, N,N-dimethyl-1-(4-(3-(1-methyl-1H-indazol-6-yl)-1,4-dihydrothieno [2′,3′:4,5]cyclopenta [1,2-c]pyrazol-6-yl)phenyl)methanamine], for which the IC50 was below 1 nM.
